According to US7531320B2, “Modulation of β-catenin/TCF-activated transcription” (priority 2003, dated 2009):

Columns and labels:
CBP = target: T1, CBP (Homo sapiens, UniProt Q92793); experiment: COMPOUND 2 streptavidin-agarose affinity pull-down from SW480 nuclear extracts; assay type: binding; conditions: SW480 nuclear extracts, 20 μM preincubation
T1 construct: endogenous in cells; host or cells: SW480 nuclear extract
Method: FIG. 1. COMPOUND 1 inhibits β-catenin/TCF transcription. • A(i) and A(ii). Structures of COMPOUND 1, COMPOUND 2, COMPOUND 3, COMPOUND 4, and COMPOUND 5. • B(i) and B(ii). […] SW480 cells (10^5), (FIG. 1B(i)), were transfected with β-catenin/TCF luciferase construct. Cells were treated with COMPOUND 1 (1-64 μM). 24 hours post treatment lysates were prepared and subjected to dual luciferase assay. The data is represented in different form in FIG. 1B(ii). • C. COMPOUND 1 has no effect on NFAT reporter construct. Stably transfected Jurkat cells, right panel, with an NFAT reporter construct, were stimulated with PMA (10 ng/ml)/lonomycin (1 μg/ml), and treated with COMPOUND 1 (0.781-50 μM). 24 hours post treatment lysates were prepared and subjected to dual luciferase assay. All experiments were performed in duplicate and the values plotted as means +/−standard deviation. • D. CBP is the molecular target of COMPOUND 1. Nuclear extracts of SW480 cells were incubated with streptavidin-agarose beads coated with COMPOUND 2 (25 μM). Beads were washed 3 times and the eluted were subjected to gel electrophoresis and immunoblotting, with anti-CBP antibodies. […] The lysates were desalted using G-25 1 cc columns (Pharmacia) to remove the unbound ^14C-labeled-COMPOUND 1, and ^14C-labeled-COMPOUND 1 incorporation was measured. […]

[1] = tested on: caspase-3/7 in HCT116 cells; experiment: Caspase-3/7 activity assay, HCT116 cells; assay type: cell-based, human; conditions: 25 μM, 24 hours, compared to CCD18Co cells
Method: FIG. 6. • A. COMPOUND 1 arrests cells in G1. FACS analysis was performed on SW480 (lower panel) and HCT116 (upper panel) cells treated for 24 hours with either COMPOUND 1 (25 μM) (right) or control (0.5% DMSO (left). 5.5×10^6 cells were fixed and stained with propidium iodide (PI). G0/G1, S, and G2/M are indicated by arrows. • B. COMPOUND 1 selectively activates caspases in colon carcinoma cell lines. SW480 and HCT116 (left graph) cells (10^5) along with the normal colonocytes, CCD18Co (right graph) were treated with either control (0.5% DMSO) or COMPOUND 1 (25 μM). 24 hours post treatment, cells were lysed and the caspase-3/7 enzymatic activities were measured. Relative fluorescence units (RFU) were calculated by subtracting the unit values of the blank (control, without cells) from the treated samples (COMPOUND 1 or control) and plotted.
SW480, HCT116, and CCD18Co cells were plated at 10^5 cells per well (96-well plates) for 24 hours prior to treatment. 25 μM of COMPOUND 1 or control (0.5% DMSO) was added to each well. 24 hours post treatment, cells were lysed and caspase activity was measured using a caspase-3/7 activity kit (Apo-One Homogeneous caspase-3/7 assay, #G77905, Promega). Relative fluorescence units (RFU) were obtained by subtracting the unit values of the blank (control, without cells) from the experimental measured values. […]

T1 sequence (Q92793 whole entry): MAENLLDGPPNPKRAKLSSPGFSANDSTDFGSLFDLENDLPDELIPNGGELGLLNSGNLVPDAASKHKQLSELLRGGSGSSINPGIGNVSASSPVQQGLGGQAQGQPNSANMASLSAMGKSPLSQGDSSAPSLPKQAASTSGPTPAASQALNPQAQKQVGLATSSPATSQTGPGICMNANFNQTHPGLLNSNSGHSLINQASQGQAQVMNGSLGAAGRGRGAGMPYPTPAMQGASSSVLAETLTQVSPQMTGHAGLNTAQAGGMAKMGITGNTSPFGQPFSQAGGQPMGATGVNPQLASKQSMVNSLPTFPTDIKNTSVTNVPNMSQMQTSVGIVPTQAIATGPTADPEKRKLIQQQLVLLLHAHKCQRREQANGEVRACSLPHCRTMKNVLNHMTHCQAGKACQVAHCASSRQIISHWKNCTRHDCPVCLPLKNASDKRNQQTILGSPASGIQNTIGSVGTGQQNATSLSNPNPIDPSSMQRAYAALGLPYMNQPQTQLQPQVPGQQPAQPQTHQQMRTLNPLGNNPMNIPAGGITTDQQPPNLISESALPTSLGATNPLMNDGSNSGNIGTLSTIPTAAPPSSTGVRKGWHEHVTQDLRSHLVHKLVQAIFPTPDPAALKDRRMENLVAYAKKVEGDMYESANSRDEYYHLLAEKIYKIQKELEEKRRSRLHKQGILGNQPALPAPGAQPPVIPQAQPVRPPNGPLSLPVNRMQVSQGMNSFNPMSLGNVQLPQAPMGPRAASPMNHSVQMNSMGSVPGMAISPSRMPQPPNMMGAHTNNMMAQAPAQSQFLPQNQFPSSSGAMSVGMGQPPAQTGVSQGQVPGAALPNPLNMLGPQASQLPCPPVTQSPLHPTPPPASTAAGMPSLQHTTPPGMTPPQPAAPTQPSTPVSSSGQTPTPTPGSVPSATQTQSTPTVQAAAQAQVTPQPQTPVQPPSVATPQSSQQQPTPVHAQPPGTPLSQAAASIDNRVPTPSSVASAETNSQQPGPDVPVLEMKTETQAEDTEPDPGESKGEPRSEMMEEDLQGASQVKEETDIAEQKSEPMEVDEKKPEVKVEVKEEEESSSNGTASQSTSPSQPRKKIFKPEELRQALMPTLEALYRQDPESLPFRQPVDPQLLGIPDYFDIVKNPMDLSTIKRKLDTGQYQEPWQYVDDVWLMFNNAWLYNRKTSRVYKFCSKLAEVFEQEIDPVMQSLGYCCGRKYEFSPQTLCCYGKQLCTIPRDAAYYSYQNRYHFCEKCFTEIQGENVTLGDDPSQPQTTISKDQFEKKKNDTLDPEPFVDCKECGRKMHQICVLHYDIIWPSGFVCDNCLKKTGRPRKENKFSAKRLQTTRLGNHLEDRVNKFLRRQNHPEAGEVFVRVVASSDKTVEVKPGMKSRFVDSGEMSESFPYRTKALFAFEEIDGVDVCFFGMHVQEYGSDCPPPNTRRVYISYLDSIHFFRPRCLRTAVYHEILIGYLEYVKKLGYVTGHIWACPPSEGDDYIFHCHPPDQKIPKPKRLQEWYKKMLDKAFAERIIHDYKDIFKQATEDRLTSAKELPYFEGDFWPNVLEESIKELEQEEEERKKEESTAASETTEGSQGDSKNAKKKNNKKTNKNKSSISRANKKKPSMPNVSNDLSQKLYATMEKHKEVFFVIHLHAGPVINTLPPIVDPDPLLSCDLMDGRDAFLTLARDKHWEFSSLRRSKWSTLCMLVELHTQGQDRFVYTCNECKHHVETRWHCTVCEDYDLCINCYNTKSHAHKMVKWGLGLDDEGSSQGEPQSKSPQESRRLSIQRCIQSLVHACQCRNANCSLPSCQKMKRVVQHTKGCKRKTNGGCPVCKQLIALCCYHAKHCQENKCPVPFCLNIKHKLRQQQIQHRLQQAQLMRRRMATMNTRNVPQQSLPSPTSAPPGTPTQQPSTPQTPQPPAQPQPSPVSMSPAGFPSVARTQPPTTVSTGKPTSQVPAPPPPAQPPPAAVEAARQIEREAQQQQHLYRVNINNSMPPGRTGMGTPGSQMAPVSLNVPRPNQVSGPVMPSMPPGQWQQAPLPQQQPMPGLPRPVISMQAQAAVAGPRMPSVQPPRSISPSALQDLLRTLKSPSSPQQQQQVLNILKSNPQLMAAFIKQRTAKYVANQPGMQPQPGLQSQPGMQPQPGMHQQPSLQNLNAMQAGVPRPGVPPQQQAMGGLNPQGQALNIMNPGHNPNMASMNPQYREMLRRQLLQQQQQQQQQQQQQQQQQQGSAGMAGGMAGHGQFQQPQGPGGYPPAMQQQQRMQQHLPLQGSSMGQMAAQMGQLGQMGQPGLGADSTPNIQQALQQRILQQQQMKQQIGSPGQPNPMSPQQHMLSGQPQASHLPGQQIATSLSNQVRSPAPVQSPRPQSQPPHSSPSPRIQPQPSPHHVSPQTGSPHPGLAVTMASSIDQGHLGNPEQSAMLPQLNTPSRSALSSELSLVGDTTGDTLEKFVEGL

What does the source list for `O=C1C(Cc2ccc(O)cc2)N2C(=O)CCN(C(=O)NCc3ccccc3)C2CN1Cc1cccc2ccccc12` (centres unmarked) [COMPOUND 1]?
Effect of preincubation with COMPOUND 1 on CBP binding to COMPOUND 2 (CBP): blocked the binding of CBP; Caspase-3/7 activity [1]: specifically and significantly activated
